Legend:
GAA = assay: DNA microarray, GAA expression in fibroblasts exposed to genistein; assay type: cell-based, human; conditions: for GAA fold change Average: 48 h vs DMSO
Description: (§1) The experiments were conducted to characterise the transcriptomic profile of human fibroblast cells exposed to genistein, and in particular to determine the expression of genes encoding lysosomal enzymes involved in metabolism (i.e. synthesis and degradation) of organic substances. The absence or deficiency of these enzymes' activity is responsible for occurrence of various lysosomal storage diseases (LSD) (including MPS). The tested hypothesis assumed that genistein influences the expression of many genes, among which there are genes coding for enzymes required in metabolism of compounds, which are pathologically stored in LSD. The results provide important information regarding genistein action on the molecular level within the range of gene expression modulation by this substance. The experiment was conducted in biological quintuplicates. Human dermal fibroblasts (HDFa) were exposed in vitro for 1, 24 or 48 hours to: 30, 60 or 100 μM of genistein; 0.05% DMSO (K1); or were untreated (control cells) (K2), and total RNA was isolated and analysed.
(§2) Fibroblast cells were grown in Dulbecco (DMEM) medium supplemented with 10% fetal bovine serum (FBS) with the addition of 1% antibiotics and anti-fungal agents at 37° C. in humidified atmosphere of 5% CO2, until the required confluency was obtained.
(§3) To determine the effect of tested compound on the transcriptom of the fibroblast cells, the growth medium was replaced with fresh medium, either non-supplemented (0.05% DMSO), or containing genistein (30, 60 or 100 μM, in 0.05% DMSO). The exposure was done for 1, 24 or 48 hours.
(§4) Total RNA was isolated from fibroblasts using High Pure RNA Isolation Kit according to the protocol and then it was quantitatively evaluated using Quant-It™ RiboGreen® Assay Kit.
(§5) Biotinylated cRNA was prepared using Ambion Total PrepAmp Kit for Illumina arrays.
(§6) Standard hybridization and quantitative image analysis procedures—Illumina hybridization protocol and Illumina scanning protocol, were used.
(§7) Processing of the results was done during data definition, including: background correction (using background subtraction method), normalization (using quantile normalization algorithm with Illumina GenomeStudio software package: gene expression module version 1.9.0) and summarization (using method, which sums the values of signal intensities from a set of probes).

HEXA = assay: DNA microarray, HEXA expression in fibroblasts exposed to genistein; assay type: cell-based, human; conditions: for HEXA fold change Average: 48 h vs DMSO
Description: as §1, §2, §3, §4, §5, §6, §7

SMPD1 = assay: DNA microarray, SMPD1 expression in fibroblasts exposed to genistein; assay type: cell-based, human; conditions: for SMPD1 fold change Average: 48 h vs DMSO
Description: as §1, §2, §3, §4, §5, §6, §7

GNPTAB = assay: DNA microarray, GNPTAB expression in fibroblasts exposed to genistein; assay type: cell-based, human; conditions: for GNPTAB fold change Average: 48 h vs DMSO
Description: as §1, §2, §3, §4, §5, §6, §7

SUMF1 = assay: DNA microarray, SUMF1 expression in fibroblasts exposed to genistein; assay type: cell-based, human; conditions: for SUMF1 fold change Average: 48 h vs DMSO
Description: as §1, §2, §3, §4, §5, §6, §7

[1] = humans and animals; cited from earlier work
MCOLN1 = assay: DNA microarray, MCOLN1 expression in fibroblasts exposed to genistein; assay type: cell-based, human; conditions: for MCOLN1 fold change Average: 48 h vs DMSO
Description: as §1, §2, §3, §4, §5, §6, §7

ARSG = assay: DNA microarray, ARSG expression in fibroblasts exposed to genistein; assay type: cell-based, human; conditions: for ARSG fold change Average: 48 h vs DMSO
Description: as §1, §2, §3, §4, §5, §6, §7

CHST14 = assay: DNA microarray, CHST14 expression in fibroblasts exposed to genistein; assay type: cell-based, human
Description: as §1, §2, §3, §4, §5, §6, §7

O=c1c(-c2ccc(O)cc2)coc2cc(O)cc(O)c12 [genistein, 4′,5,7-trihydroxy-3-phenylchromen-4-one]
GAA fold change Average 1h60/1hK1 (GAA; 60 μM, 1 h vs 0.05% DMSO): 1.087 fold change
GAA fold change Average (GAA; 60 μM): 1.763 fold change
GAA fold change Average 1h100/1hK1 (GAA; 100 μM, 1 h vs 0.05% DMSO): 0.935 fold change
GAA fold change Average (GAA; 100 μM): 1.955 fold change
HEXA fold change Average 1h30/1hK1 (HEXA; 30 μM, 1 h vs 0.05% DMSO): 1.2226 fold change
HEXA fold change Average (HEXA; 30 μM): 1.0817 fold change
HEXA fold change Average 1h60/1hK1 (HEXA; 60 μM, 1 h vs 0.05% DMSO): 1.174 fold change
HEXA fold change Average (HEXA; 60 μM): 1.474 fold change
HEXA fold change Average 1h100/1hK1 (HEXA; 100 μM, 1 h vs 0.05% DMSO): 1.042 fold change
HEXA fold change Average (HEXA; 100 μM): 1.621 fold change
SMPD1 fold change Average 1h30/1hK1 (SMPD1; 30 μM, 1 h vs 0.05% DMSO): 1.0078 fold change
SMPD1 fold change Average (SMPD1; 30 μM): 1.2419 fold change
SMPD1 fold change Average 1h60/1hK1 (SMPD1; 60 μM, 1 h vs 0.05% DMSO): 0.9831 fold change
SMPD1 fold change Average (SMPD1; 60 μM): 1.457 fold change
SMPD1 fold change Average 1h100/1hK1 (SMPD1; 100 μM, 1 h vs 0.05% DMSO): 1.012 fold change
SMPD1 fold change Average (SMPD1; 100 μM): 1.673 fold change
GNPTAB fold change Average 1h30/1hK1 (GNPTAB; 30 μM, 1 h vs 0.05% DMSO): 0.7878 fold change
GNPTAB fold change Average (GNPTAB; 30 μM): 1.6393 fold change
GNPTAB fold change Average 1h60/1hK1 (GNPTAB; 60 μM, 1 h vs 0.05% DMSO): 1.235 fold change
GNPTAB fold change Average 1h100/1hK1 (GNPTAB; 100 μM, 1 h vs 0.05% DMSO): 0.8628 fold change
GNPTAB fold change Average (GNPTAB; 100 μM): 1.872 fold change
SUMF1 fold change Average 1h30/1hK1 (SUMF1; 30 μM, 1 h vs 0.05% DMSO): 1.1314 fold change
SUMF1 fold change Average (SUMF1; 30 μM): 1.2364 fold change
SUMF1 fold change Average 1h60/1hK1 (SUMF1; 60 μM, 1 h vs 0.05% DMSO): 1.158 fold change
SUMF1 fold change Average (SUMF1; 60 μM): 1.849 fold change
SUMF1 fold change Average 1h100/1hK1 (SUMF1; 100 μM, 1 h vs 0.05% DMSO): 1.095 fold change
SUMF1 fold change Average (SUMF1; 100 μM): 1.705 fold change
tolerability [1]: well-tolerated
MCOLN1 fold change Average 1h30/1hK1 (MCOLN1; 30 μM, 1 h vs 0.05% DMSO): 1.065 fold change
MCOLN1 fold change Average 1h60/1hK1 (MCOLN1; 60 μM, 1 h vs 0.05% DMSO): 1.038 fold change
MCOLN1 fold change Average (MCOLN1; 60 μM): 1.439 fold change
MCOLN1 fold change Average 1h100/1hK1 (MCOLN1; 100 μM, 1 h vs 0.05% DMSO): 1.013 fold change
MCOLN1 fold change Average (MCOLN1; 100 μM): 1.482 fold change
ARSG fold change Average 1h30/1hK1 (ARSG; 30 μM, 1 h vs 0.05% DMSO): 1.083 fold change
ARSG fold change Average (ARSG; 30 μM): 1.3921 fold change
ARSG fold change Average 1h60/1hK1 (ARSG; 60 μM, 1 h vs 0.05% DMSO): 1.204 fold change
ARSG fold change Average (ARSG; 60 μM): 2.488 fold change
ARSG fold change Average 1h100/1hK1 (ARSG; 100 μM, 1 h vs 0.05% DMSO): 0.961 fold change
ARSG fold change Average (ARSG; 100 μM): 1.81 fold change
CHST14 fold change Average 1h30/1hK1 (CHST14; 30 μM, 1 h vs 0.05% DMSO): 1.007 fold change
CHST14 fold change Average 24h30/24hK1 (CHST14; 30 μM, 24 h vs 0.05% DMSO): 0.8234 fold change
CHST14 fold change Average 48h30/48hK1 (CHST14; 30 μM, 48 h vs 0.05% DMSO): 0.9217 fold change
CHST14 fold change Average 1h60/1hK1 (CHST14; 60 μM, 1 h vs 0.05% DMSO): 0.851 fold change
CHST14 fold change Average 24h60/24hK1 (CHST14; 60 μM, 24 h vs 0.05% DMSO): 0.8184 fold change
CHST14 fold change Average 48h61/48hK1 (CHST14; 60 μM, 48 h vs 0.05% DMSO): 0.8526 fold change
CHST14 fold change Average 1h100/1hK1 (CHST14; 100 μM, 1 h vs 0.05% DMSO): 1.06 fold change
CHST14 fold change Average 24h100/24hK1 (CHST14; 100 μM, 24 h vs 0.05% DMSO): 0.8438 fold change
CHST14 fold change Average 48h100/48hK1 (CHST14; 100 μM, 48 h vs 0.05% DMSO): 0.6534 fold change

Source: patent US20150148551A1, “GENISTEIN FOR REDUCING LEVELS OF STORAGE COMPOUNDS IN THE TREATMENT AND/OR PREVENTION OF LYSOSOMAL STORAGE DISEASES (LSDS)” (3G THERAPEUTICS, INC., priority 2012, published 2015)
